Molecular target: T1, BDDrFVIII (Homo sapiens, UniProt P00451)
T1 construct: Deletion of the B domain leads to a less heterogenic, genetically engineered rFVIII that corresponds to the shortest form of pdFVIII (e.g. ˜170 KDa)
T1 sequence (P00451 with tags, fused parts or gaps DEL765-1658): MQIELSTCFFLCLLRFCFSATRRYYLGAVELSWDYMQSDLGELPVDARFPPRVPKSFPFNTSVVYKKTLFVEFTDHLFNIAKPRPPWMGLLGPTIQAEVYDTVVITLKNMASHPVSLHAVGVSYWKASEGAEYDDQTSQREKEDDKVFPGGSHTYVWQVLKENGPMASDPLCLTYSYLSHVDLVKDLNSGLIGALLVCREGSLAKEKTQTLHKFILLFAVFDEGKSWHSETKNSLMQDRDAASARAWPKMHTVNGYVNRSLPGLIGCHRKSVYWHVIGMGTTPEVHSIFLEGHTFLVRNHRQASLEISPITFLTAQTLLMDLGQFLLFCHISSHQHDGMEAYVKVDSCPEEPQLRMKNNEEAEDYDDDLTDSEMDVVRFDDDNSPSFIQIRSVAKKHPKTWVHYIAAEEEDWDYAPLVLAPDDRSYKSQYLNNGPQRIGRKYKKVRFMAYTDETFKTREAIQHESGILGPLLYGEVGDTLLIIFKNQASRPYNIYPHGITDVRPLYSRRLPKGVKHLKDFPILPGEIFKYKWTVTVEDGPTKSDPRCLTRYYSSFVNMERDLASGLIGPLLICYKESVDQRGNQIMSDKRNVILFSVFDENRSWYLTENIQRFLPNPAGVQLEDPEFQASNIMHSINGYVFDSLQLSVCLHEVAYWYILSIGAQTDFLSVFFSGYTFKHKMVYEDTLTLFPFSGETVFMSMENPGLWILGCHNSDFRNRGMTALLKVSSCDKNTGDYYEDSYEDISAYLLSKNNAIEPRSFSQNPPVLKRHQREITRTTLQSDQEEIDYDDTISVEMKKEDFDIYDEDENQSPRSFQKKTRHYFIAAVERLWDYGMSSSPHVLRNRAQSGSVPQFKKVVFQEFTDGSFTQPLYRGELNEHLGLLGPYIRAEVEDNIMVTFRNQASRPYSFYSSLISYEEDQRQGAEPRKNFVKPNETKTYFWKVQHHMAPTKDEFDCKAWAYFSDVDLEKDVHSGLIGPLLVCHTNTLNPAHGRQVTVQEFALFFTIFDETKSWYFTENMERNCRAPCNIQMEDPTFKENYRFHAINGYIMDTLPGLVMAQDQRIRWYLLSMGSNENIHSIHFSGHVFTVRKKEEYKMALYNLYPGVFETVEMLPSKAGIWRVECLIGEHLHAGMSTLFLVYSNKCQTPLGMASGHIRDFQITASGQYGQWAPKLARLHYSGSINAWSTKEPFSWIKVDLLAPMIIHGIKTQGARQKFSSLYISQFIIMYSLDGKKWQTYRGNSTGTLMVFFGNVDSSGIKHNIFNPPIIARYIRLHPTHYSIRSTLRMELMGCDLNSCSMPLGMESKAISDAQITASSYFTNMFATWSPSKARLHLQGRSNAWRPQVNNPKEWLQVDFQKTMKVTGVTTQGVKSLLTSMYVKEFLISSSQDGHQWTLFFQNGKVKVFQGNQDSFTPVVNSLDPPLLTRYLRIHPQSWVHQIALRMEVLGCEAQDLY
Test: Dissociation constant of lipid head group - BDDrFVIII interaction by intrinsic fluorescence
Type: binding
Details: excitation 285 nm, emission 330 nm, protein 3 ug/mL
Description: This examples describes the preparation of PS containing liposomes that were used for comparison with the PI containing lipidic structures in other Examples. BDDrFVIII was mixed with solution containing different concentration of O-phospho-L-serine (OPLS) or phosphocholine in such a way that the final protein concentration is maintained constant at 3 ug/mL. The OPLS or phosphocholine concentration vared between 0 and 100 uM. Each mixture is incubated for 5 minutes before subjecting to further analysis.
The intrinsic fluorescent of BDDrFVIII in the presence of increasing concentration of phospholipids head group was measured with a Quanta Master PTI instrument. The excitation was set to 285 nm and the emission was recorded at peak maximum (e.g. 330 nm). The normalized fluorescence (F/F0) data was plotted vs. [lipid] and used for the determination of the dissociation constant for lipid head group—BDDrFVIII interaction.

Kd [µM]	SMILES
70.2	N[C@@H](COP(=O)(O)O)C(=O)O [OPLS, O-phospho-L-serine]
24.2	C[N+](C)(C)CCOP(=O)([O-])O [phophocholine, phosphocholine]

Source: patent publication US7875289B2, “Compositions of less immunogenic and long-circulating protein-lipid complexes” (The Research Foundation of State University of New York, priority 2006, dated 2011)
